Experimental data taken from the supplement of paper PMC10307832.

Tests used:
Experiment in all cases: relative viability (nuclei count vs DMSO), 5 days (fraction); higher = more cells survive
Alisertib + Trametinib = compound: COc1cc(Nc2ncc3c(n2)-c2ccc(Cl)cc2C(c2c(F)cccc2OC)=NC3)ccc1C(=O)O [Alisertib] + CC(=O)Nc1cccc(-n2c(=O)n(C3CC3)c(=O)c3c(Nc4ccc(I)cc4F)n(C)c(=O)c(C)c32)c1 [Trametinib] (partner 0.02 µM)
In short: (§1)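 For relative viability, nuclei counts in treated wells were divided by those in vehicle wells. Lung cancer cell lines had been pin-tool dosed in 1536-well plates the day after seeding and cultured for 5 days, then fixed and stained in one step (final 0.05% Triton X-100, 1% formaldehyde, 1 ug/ml Hoechst) and imaged at 4×. Doses were one drug alone or a fixed anchor-drug dose plus five library-drug doses (not always all listed) in √10 steps, and values are duplicate-plate medians.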

Alisertib + Lapatinib = compound: COc1cc(Nc2ncc3c(n2)-c2ccc(Cl)cc2C(c2c(F)cccc2OC)=NC3)ccc1C(=O)O [Alisertib] + CS(=O)(=O)CCNCc1ccc(-c2ccc3ncnc(Nc4ccc(OCc5cccc(F)c5)c(Cl)c4)c3c2)o1 [Lapatinib] (partner 2 µM)
In short: as §1

Alisertib + Phenformin = compound: COc1cc(Nc2ncc3c(n2)-c2ccc(Cl)cc2C(c2c(F)cccc2OC)=NC3)ccc1C(=O)O [Alisertib] + N=C(N)NC(=N)NCCc1ccccc1 [Phenformin] (partner 250 µM)
In short: as §1

Alisertib + Olaparib = compound: COc1cc(Nc2ncc3c(n2)-c2ccc(Cl)cc2C(c2c(F)cccc2OC)=NC3)ccc1C(=O)O [Alisertib] + O=C(c1cc(Cc2n[nH]c(=O)c3ccccc23)ccc1F)N1CCN(C(=O)C2CC2)CC1 [Olaparib] (partner 8 µM)
In short: as §1

Cell Line | relative viability (Alisertib + Trametinib; first compound 0.005 µM) | relative viability (Alisertib + Trametinib; first compound 0.01581 µM) | relative viability (Alisertib + Trametinib; first compound 0.05 µM) | relative viability (Alisertib + Trametinib; first compound 0.1581 µM) | relative viability (Alisertib + Trametinib; first compound 0.5 µM) | relative viability (Alisertib + Lapatinib; first compound 0.005 µM) | relative viability (Alisertib + Lapatinib; first compound 0.01581 µM) | relative viability (Alisertib + Lapatinib; first compound 0.05 µM) | relative viability (Alisertib + Lapatinib; first compound 0.1581 µM) | relative viability (Alisertib + Lapatinib; first compound 0.5 µM) | relative viability (Alisertib + Phenformin; first compound 0.005 µM) | relative viability (Alisertib + Phenformin; first compound 0.01581 µM) | relative viability (Alisertib + Phenformin; first compound 0.05 µM) | relative viability (Alisertib + Phenformin; first compound 0.1581 µM) | relative viability (Alisertib + Phenformin; first compound 0.5 µM) | relative viability (Alisertib + Olaparib; first compound 0.005 µM) | relative viability (Alisertib + Olaparib; first compound 0.01581 µM) | relative viability (Alisertib + Olaparib; first compound 0.05 µM) | relative viability (Alisertib + Olaparib; first compound 0.1581 µM) | relative viability (Alisertib + Olaparib; first compound 0.5 µM)
COR-L 105 | 0.4 | 0.407 | 0.369 | 0.325 | 0.281 | 0.322 | 0.413 | 0.319 | 0.223 | 0.263 | 0.454 | 0.493 | 0.335 | 0.234 | 0.246 | 0.689 | 0.641 | 0.502 | 0.498 | 0.311
LK-2 | 0.746 | 0.677 | 0.522 | 0.25 | 0.183 | 0.842 | 0.87 | 0.49 | 0.344 | 0.242 | 0.38 | 0.385 | 0.179 | 0.149 | 0.163 | 0.648 | 0.56 | 0.294 | 0.183 | 0.109
NCI-H838 | 0.432 | 0.49 | 0.269 | 0.146 | 0.129 | 0.827 | 0.673 | 0.391 | 0.257 | 0.164 | 0.444 | 0.446 | 0.276 | 0.183 | 0.144 | 0.673 | 0.552 | 0.324 | 0.169 | 0.152
SK-LU-1 | 0.484 | 0.457 | 0.203 | 0.275 | 0.279 | 0.79 | 0.569 | 0.296 | 0.265 | 0.237 | 0.455 | 0.462 | 0.22 | 0.21 | 0.142 | 0.437 | 0.447 | 0.344 | 0.247 | 0.183
NCI-H2023 | 0.623 | 0.435 | 0.289 | 0.123 | 0.124 | 0.848 | 0.602 | 0.41 | 0.135 | 0.0899 | 0.428 | 0.388 | 0.28 | 0.157 | 0.0966 | 0.448 | 0.456 | 0.27 | 0.134 | 0.101
NCI-H322M | 0.456 | 0.495 | 0.403 | 0.472 | 0.381 | 0.564 | 0.616 | 0.548 | 0.296 | 0.315 | 0.683 | 0.793 | 0.572 | 0.412 | 0.409 | 0.77 | 0.686 | 0.565 | 0.459 | 0.488
NCI-H1666 | 0.839 | 0.738 | 0.679 | 0.612 | 0.501 | 0.672 | 0.451 | 0.436 | 0.28 | 0.236 | 0.522 | 0.49 | 0.506 | 0.426 | 0.344 | 0.739 | 0.739 | 0.706 | 0.629 | 0.511
NCI-H1648 | – | 0.42 | 0.27 | 0.229 | 0.25 | – | – | – | – | – | – | – | – | – | – | – | 0.711 | 0.293 | 0.242 | 0.267
NCI-H2087 | 0.243 | 0.221 | 0.149 | 0.134 | 0.0971 | 1.16 | 0.724 | 0.245 | 0.188 | 0.183 | 0.423 | 0.372 | 0.13 | 0.12 | 0.105 | 0.549 | 0.527 | 0.13 | 0.126 | 0.108
